Columns and labels:
[1] = Solubility of the compound; type: physicochemical
[2] = biological target: T1, Dual specificity protein kinase TTK (Homo sapiens, UniProt P33981); experiment: Inhibition of full length human Mps1 using fluorescence-labeled H236 peptide as substrate after 60 to 90 mins in presence of ATP by fluorescence assay based Cheng-Prusoff equation analysis
T1 sequence (P33981 whole entry): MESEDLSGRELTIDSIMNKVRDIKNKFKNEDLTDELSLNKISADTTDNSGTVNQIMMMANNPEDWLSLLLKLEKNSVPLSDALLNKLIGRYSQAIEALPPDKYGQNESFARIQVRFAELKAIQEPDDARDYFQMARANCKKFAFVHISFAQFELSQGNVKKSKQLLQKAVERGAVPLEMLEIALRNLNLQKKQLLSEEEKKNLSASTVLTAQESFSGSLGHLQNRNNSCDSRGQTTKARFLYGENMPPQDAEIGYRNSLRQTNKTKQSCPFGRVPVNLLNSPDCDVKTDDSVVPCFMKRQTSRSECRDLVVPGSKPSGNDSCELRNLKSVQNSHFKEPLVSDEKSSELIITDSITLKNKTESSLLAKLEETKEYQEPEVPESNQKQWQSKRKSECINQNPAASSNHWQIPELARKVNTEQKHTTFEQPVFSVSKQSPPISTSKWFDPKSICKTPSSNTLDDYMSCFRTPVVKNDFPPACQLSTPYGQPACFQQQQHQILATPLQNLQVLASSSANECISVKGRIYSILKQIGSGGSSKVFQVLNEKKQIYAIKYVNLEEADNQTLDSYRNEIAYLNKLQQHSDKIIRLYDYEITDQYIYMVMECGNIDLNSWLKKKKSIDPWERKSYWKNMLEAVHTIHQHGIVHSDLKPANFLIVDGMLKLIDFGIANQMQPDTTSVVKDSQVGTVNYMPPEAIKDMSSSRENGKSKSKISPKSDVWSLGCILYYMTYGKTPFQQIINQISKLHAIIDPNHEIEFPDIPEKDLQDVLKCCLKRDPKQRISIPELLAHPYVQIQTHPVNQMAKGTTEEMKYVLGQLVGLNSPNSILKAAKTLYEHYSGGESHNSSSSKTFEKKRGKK

[3] = biological target: T2, Aurora kinase A (Homo sapiens, UniProt O14965); experiment: Inhibition of full length N-terminal His-tagged Aurora A (unknown origin) using fluorescence-labeled FL-Peptide 21 as substrate after 60 mins in presence of ATP by fluorescence assay based Cheng-Prusoff equation analysis
T2 sequence (O14965 whole entry): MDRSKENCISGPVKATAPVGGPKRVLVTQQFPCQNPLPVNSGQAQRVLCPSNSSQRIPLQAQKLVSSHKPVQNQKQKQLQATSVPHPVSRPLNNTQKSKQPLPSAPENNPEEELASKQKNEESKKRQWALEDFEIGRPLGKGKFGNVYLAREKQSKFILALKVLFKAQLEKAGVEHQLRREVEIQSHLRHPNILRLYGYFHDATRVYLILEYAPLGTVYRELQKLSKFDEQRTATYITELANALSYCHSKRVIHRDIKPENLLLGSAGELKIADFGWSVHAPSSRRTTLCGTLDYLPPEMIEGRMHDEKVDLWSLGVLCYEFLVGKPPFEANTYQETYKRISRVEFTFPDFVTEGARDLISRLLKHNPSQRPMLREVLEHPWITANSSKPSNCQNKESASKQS

[4] = biological target: Aurora kinase B/Inner centromere protein (Homo sapiens, UniProt Q96GD4); experiment: Inhibition of human full length N-terminal GST-tagged Aurora B (1 to 344 end residues)/His-tagged INCENP (803 to 918 end residues) expressed in baculovirus expression system using fluorescence-labeled FL-Peptide 21 as substrate after 60 mins in presence of ATP by fluorescence assay based Cheng-Prusoff equation analysis
Chain of Aurora kinase B/Inner centromere protein (Q96GD4 whole entry): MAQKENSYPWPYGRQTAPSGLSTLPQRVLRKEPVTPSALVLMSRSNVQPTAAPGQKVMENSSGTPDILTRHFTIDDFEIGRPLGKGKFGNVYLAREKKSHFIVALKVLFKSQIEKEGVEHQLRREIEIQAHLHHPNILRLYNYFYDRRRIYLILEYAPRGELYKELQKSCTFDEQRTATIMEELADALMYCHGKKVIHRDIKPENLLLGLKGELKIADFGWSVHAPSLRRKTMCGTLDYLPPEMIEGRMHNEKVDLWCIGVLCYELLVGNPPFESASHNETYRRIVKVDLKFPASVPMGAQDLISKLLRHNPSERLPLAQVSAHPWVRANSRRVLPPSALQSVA
Chain of Aurora kinase B/Inner centromere protein (Q9NQS7 whole entry, further chain): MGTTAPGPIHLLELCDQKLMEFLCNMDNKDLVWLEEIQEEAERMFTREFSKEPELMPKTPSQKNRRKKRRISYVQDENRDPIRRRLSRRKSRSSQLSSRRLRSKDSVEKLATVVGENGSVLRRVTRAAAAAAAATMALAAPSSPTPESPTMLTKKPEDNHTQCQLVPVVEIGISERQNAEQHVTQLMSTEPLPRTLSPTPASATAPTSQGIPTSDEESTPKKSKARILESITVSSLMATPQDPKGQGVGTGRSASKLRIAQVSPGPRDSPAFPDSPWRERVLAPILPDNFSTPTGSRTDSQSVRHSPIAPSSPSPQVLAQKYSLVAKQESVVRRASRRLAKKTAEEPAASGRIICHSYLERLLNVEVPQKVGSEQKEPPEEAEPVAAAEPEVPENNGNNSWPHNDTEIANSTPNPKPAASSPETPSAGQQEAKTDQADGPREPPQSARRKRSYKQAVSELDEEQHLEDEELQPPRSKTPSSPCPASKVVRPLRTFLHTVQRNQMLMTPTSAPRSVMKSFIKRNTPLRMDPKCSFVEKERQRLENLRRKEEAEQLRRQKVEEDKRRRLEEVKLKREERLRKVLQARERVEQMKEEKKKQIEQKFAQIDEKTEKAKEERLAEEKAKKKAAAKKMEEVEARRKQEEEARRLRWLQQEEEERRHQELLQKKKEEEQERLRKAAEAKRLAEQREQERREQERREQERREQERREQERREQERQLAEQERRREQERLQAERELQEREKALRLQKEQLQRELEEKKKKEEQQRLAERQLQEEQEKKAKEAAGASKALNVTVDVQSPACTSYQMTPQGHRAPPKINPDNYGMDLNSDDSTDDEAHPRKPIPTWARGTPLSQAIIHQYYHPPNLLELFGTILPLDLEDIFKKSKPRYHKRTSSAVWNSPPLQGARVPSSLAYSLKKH

SMILES	solubility [1]	Ki [2]	Ki [3]	Ki [4]
CN(C)Cc1ccc(-c2c[nH]c(=O)c(N)c2)cc1	–	367 µM	> 100 µM	12.9 µM
Cn1cc(-c2ccncc2)cc(N)c1=O	–	236 µM	99.5 µM	103 µM
CN1CCN(c2ccc(C(=O)Nc3cc(-c4ccncc4)c[nH]c3=O)cc2)CC1	Insoluble	–	–	–

Continued, values first:

solubility [1]	Ki [2]	Ki [3]	Ki [4]	SMILES
Insoluble	–	–	–	O=C(Nc1cc(-c2ccncc2)c[nH]c1=O)c1ccccc1
Insoluble	–	–	–	O=C(Nc1cc(-c2ccnc(NC3CC3)n2)c[nH]c1=O)c1ccccc1

— ChEMBL document CHEMBL4251747 (Bioorg Med Chem, 2018)
